Measurements published in patent publication US7847108B2, “Oxathiin carboxamides” (Bayer CropScience AG, priority 2003, dated 2010).

assay: logP determination by HPLC on reversed-phase column (EEC Directive 79/831 Annex V.A8); format: physicochemical; details: Table 1 logP / m.p., C18, 43° C., acidic range (pH 2.3)
Protocol: The given logP values were determined in accordance with EEC Directive 79/831 Annex V.A8 by HPLC (High Performance Liquid Chromatography) on a reversed-phase column (C 18). Temperature: 43° C. […] Calibration was carried out using unbranched alkan-2-ones (having 3 to 16 carbon atoms) with known logP values (determination of the logP values by the retention times using linear interpolation between two successive alkanones).

SMILES	logP
CC1COC(C(F)(F)F)=C(C(=O)Nc2ccccc2C(C)CC(C)(C)C)S1 (centres unmarked) [Example 4]	4.53
O=C(Nc1ccccc1-c1ccc(Cl)c(Cl)c1)C1=C(C2CC2)OCCS1 [Example 80]	3.53
Cc1ccc(-c2ccccc2NC(=O)C2=C(C(F)(F)F)OC(C)CS2)cc1F (centres unmarked) [Example 69]	3.99
CC(C)CC(C)c1cc(F)ccc1NC(=O)C1=C(C(F)(F)F)OCCS1 (centres unmarked) [Example 50]	3.94
O=C(Nc1ccccc1C1CCCCC1)C1=C(C(F)(F)F)OCCS1 [Example 28]	3.69
CC1COC(C(F)(F)F)=C(C(=O)Nc2ccccc2-c2ccc(Cl)c(C(F)(F)F)c2)S1 (centres unmarked) [Example 7]	4.30
CC1COC(C(F)(F)F)=C(C(=O)Nc2ccccc2-c2ccc(C(F)(F)F)cc2)S1 (centres unmarked) [Example 9]	4.06
CC(C)CC(C)c1ccccc1NC(=O)C1=C(C(F)(F)F)OCC(C)S1 (centres unmarked) [Example 3]	4.24
N#Cc1ccc(-c2ccccc2NC(=O)C2=C(C(F)(F)F)OCCS2)cc1 [Example 78]	2.87
CCCCCCCCC(C)c1ccccc1NC(=O)C1=C(C(F)(F)F)OCCS1 (centres unmarked) [Example 42]	5.48
O=C(Nc1ccccc1-c1cc(F)cc(Cl)c1)C1=C(C(F)(F)F)OCCS1 [Example 44]	3.60
CCCCCC(C)c1ccccc1NC(=O)C1=C(C(F)(F)F)OCCS1 (centres unmarked) [Example 48]	4.34
CC(=CC(C)C)c1ccccc1NC(=O)C1=C(C(F)(F)F)OCCS1 [Example 89]	4.32
Cc1cc(-c2ccccc2NC(=O)C2=C(C(F)(F)F)OCCS2)ccc1Br [Example 98]	4.06
O=C(Nc1ccccc1-c1ccc(Cl)c(C(F)(F)F)c1)C1=C(C(F)(F)F)OCCS1 [Example 30]	4.03
O=C(Nc1ccccc1-c1cc(F)cc(F)c1)C1=C(C(F)(F)F)OCCS1 [Example 32]	3.35
CON=C(N)c1ccc(-c2ccccc2NC(=O)C2=C(C(F)(F)F)OCCS2)cc1 [Example 41]	1.96
CC1CSC(C(=O)Nc2ccccc2C(C)CC(C)(C)C)=C(C(F)(F)F)O1 (centres unmarked) [Example 66]	4.51
CCCC(C)c1ccccc1NC(=O)C1=C(C(F)(F)F)OCCS1 (centres unmarked) [Example 39]	3.63
CCCON=Cc1ccc(-c2ccccc2NC(=O)C2=C(C(F)(F)F)OCCS2)cc1F [Example 25]	4.42
CON=C(C)c1ccc(-c2ccccc2NC(=O)C2=C(C(F)(F)F)OCCS2)cc1Cl [Example 45]	3.45
CC1CSC(C(=O)Nc2ccc(F)cc2-c2ccc(Cl)c(Cl)c2)=C(C(F)(F)F)O1 (centres unmarked) [Example 67]	4.32
C=CCC(C)c1ccccc1NC(=O)C1=C(C(F)(F)F)OCCS1 (centres unmarked) [Example 34]	3.33
Cc1ccc(-c2ccccc2NC(=O)C2=C(C(F)(F)F)OCCS2)cc1F [Example 36]	3.62

SMILES	logP
CC(C)CC(C)c1ccccc1NC(=O)C1=C(C(F)(F)F)OC(C)CS1 (centres unmarked) [Example 63]	4.27
CCC(C)CC(C)c1ccccc1NC(=O)C1=C(C(F)(F)F)OCCS1 (centres unmarked) [Example 54]	4.25
CC1CSC(C(=O)Nc2ccccc2-c2ccc(C(F)(F)F)c(F)c2)=C(C(F)(F)F)O1 (centres unmarked) [Example 71]	4.08
C#CCON=C(C)c1ccc(-c2ccccc2NC(=O)C2=C(C(F)(F)F)OCCS2)cc1 [Example 40]	3.76
O=C(Nc1ccccc1-c1ccc(Cl)c(Cl)c1)C1=C(C(F)F)OCCS1 [Example 84]	3.92
CC1CC(C)(C)c2cccc(NC(=O)C3=C(C(F)(F)F)OCCS3)c21 (centres unmarked) [Example 60]	4.18
CC(C)(C)C#Cc1ccccc1NC(=O)C1=C(C(F)(F)F)OCCS1 [Example 97]	4.42
CC(C)CCc1ccccc1NC(=O)C1=C(C(F)(F)F)OCCS1 [Example 102]	3.72
CC(C)ON=Cc1ccc(-c2ccccc2NC(=O)C2=C(C(F)(F)F)OC(C)CS2)cc1 (centres unmarked) [Example 64]	4.56
O=C(Nc1ccccc1-c1ccc(Cl)c(Cl)c1)C1=C(C(F)(F)F)OCCS1(=O)=O [Example 93]	3.57
O=C(Nc1ccccc1-c1ccc(Br)cc1)C1=C(C(F)(F)F)OCCS1(=O)=O [Example 91]	3.35
O=C(Nc1cc(F)ccc1-c1cc(F)cc(F)c1)C1=C(C(F)(F)F)OCCS1 [Example 75]	3.70
CC(CC1CC1)c1ccccc1NC(=O)C1=C(C(F)(F)F)OCCS1 (centres unmarked) [Example 96]	3.72
CC1(c2ccccc2NC(=O)C2=C(C(F)(F)F)OCCS2)CC1(Cl)Cl (centres unmarked) [Example 101]	3.66
CCCCCCc1ccccc1NC(=O)C1=C(C(F)(F)F)OCCS1 [Example 76]	4.25
CCCC(C)c1cc(F)ccc1NC(=O)C1=C(C(F)(F)F)OCCS1 (centres unmarked) [Example 52]	3.67
Cc1cc(-c2ccccc2NC(=O)C2=C(C(F)(F)F)OC(C)CS2)ccc1F (centres unmarked) [Example 70]	3.99
CC(=O)N(C(=O)C1=C(C(F)(F)F)OCCS1)c1ccccc1C(C)CC(C)C (centres unmarked) [Example 99]	4.56
Cc1cc(-c2ccccc2NC(=O)C2=C(C(F)(F)F)OCC(C)S2)ccc1F (centres unmarked) [Example 5]	3.98
CCC(C)(C)CC(C)c1ccccc1NC(=O)C1=C(C(F)(F)F)OCCS1 (centres unmarked) [Example 58]	4.48
CCC(C)C(C)c1ccccc1NC(=O)C1=C(C(F)(F)F)OCCS1 (centres unmarked) [Example 94]	3.88
CC(C)(C)CCc1ccccc1NC(=O)C1=C(C(F)(F)F)OCCS1 [Example 103]	3.98
CC(CC1CC1(Cl)Cl)c1ccccc1NC(=O)C1=C(C(F)(F)F)OCCS1 (centres unmarked) [Example 55]	3.92
CC1CSC(C(=O)Nc2ccccc2-c2ccc(C(F)(F)F)cc2)=C(C(F)(F)F)O1 (centres unmarked) [Example 61]	4.08

SMILES	logP
CCC(CC(C)C)c1ccccc1NC(=O)C1=C(C(F)(F)F)OCCS1 (centres unmarked) [Example 88]	4.30
CON=Cc1ccc(-c2ccccc2NC(=O)C2=C(C(F)(F)F)OC(C)CS2)cc1 (centres unmarked) [Example 62]	3.81
CC(CC1CCCCC1)c1ccccc1NC(=O)C1=C(C(F)(F)F)OCCS1 (centres unmarked) [Example 31]	4.71
CC1CSC(C(=O)Nc2ccccc2C2CC3CCC2C3)=C(C(F)(F)F)O1 (centres unmarked) [Example 59]	5.36
CC1CC(C)(C)c2cccc(NC(=O)C3=C(C(F)F)OCCS3)c21 (centres unmarked) [Example 83]	4.00
CC(C)ON=Cc1ccc(-c2ccccc2NC(=O)C2=C(C(F)(F)F)OCC(C)S2)cc1 (centres unmarked) [Example 8]	4.57
Cc1cc(Cl)ccc1-c1ccccc1NC(=O)C1=C(C(F)(F)F)OCCS1(=O)=O [Example 92]	3.66
CON=C(c1ccc(-c2ccccc2NC(=O)C2=C(C(F)(F)F)OCCS2)cc1)C(F)(F)F [Example 100]	2.53
CC(C)CC(C)c1ccccc1NC(=O)C1=C(C(F)(F)F)OCCS1(=O)=O (centres unmarked) [Example 90]	3.53
CC(c1ccccc1NC(=O)C1=C(C(F)(F)F)OCCS1)C1CCCCC1 (centres unmarked) [Example 49]	4.31
CCCON=Cc1ccc(-c2ccccc2NC(=O)C2=C(C(F)(F)F)OC(C)CS2)cc1F (centres unmarked) [Example 68]	4.77
CCC(CC)c1ccccc1NC(=O)C1=C(C(F)(F)F)OCCS1 [Example 51]	3.62
CON=C(C)c1ccc(-c2ccccc2NC(=O)C2=C(C(F)(F)F)OCCS2)cc1F [Example 46]	3.69
O=C(Nc1ccccc1-c1ccc(I)cc1)C1=C(C(F)(F)F)OCCS1 [Example 33]	3.85
CCCC(CC)c1ccccc1NC(=O)C1=C(C(F)(F)F)OCCS1 (centres unmarked) [Example 77]	4.07
O=C(Nc1ccccc1-c1ccc(Cl)c(F)c1)C1=C(C(F)(F)F)OCCS1(=O)=O [Example 95]	3.28
CC1COC(C(F)(F)F)=C(C(=O)Nc2ccccc2-c2ccc(Cl)c(Cl)c2)S1 (centres unmarked) [Example 6]	4.26
CC(CC(C)(C)C)c1ccccc1NC(=O)C1=C(C(F)F)OCCS1 (centres unmarked) [Example 81]	4.29
CC1CSC(C(=O)Nc2ccccc2-c2ccc(Cl)c(Cl)c2)=C(C(F)(F)F)O1 (centres unmarked) [Example 65]	4.27
O=C(Nc1c(F)cccc1-c1cc(F)cc(F)c1)C1=C(C(F)(F)F)OCCS1 [Example 74]	3.20
O=C(Nc1ccc(F)cc1-c1cc(F)cc(F)c1)C1=C(C(F)(F)F)OCCS1 [Example 73]	3.49
CCCON=Cc1ccc(-c2ccccc2NC(=O)C2=C(C(F)F)OCCS2)cc1F [Example 85]	4.52
CCCC(CC(C)C)c1ccccc1NC(=O)C1=C(C(F)(F)F)OCCS1 (centres unmarked) [Example 87]	4.65

same assay, conditions: reversed-phase C18 HPLC column, pH 2.3, C18, 43° C., precursors, read-out: HPLC: logP

SMILES	chromatographic logP
CC1COC(C(F)(F)F)=C(C(=O)O)S1 (centres unmarked) [Example (II-2)]	1.69
CCC(Cl)CC(C)c1ccccc1N (centres unmarked) [Example (III-3), 2-(3-Chloro-1-methylpentyl)phenylamine]	2.3
CC(C)=CC(C)c1ccccc1N (centres unmarked) [Example (III-2)]	1.19
CC1CSC(C(=O)O)=C(C(F)(F)F)O1 (centres unmarked) [Example (II-3)]	1.72

same assay, conditions: reversed-phase C18 HPLC column, pH 2.3, C18, 43° C., read-out: logP (pH 2.3)

SMILES	chromatographic logP
CO/N=C/c1ccc(-c2ccccc2NC(=O)C2=C(C(F)(F)F)OCCS2)cc1 [Example 1, N-[4′-(methoxyiminomethyl)-biphenyl-2-yl]-6-trifluoromethyl-2,3-dihydro-1,4-oxathiin-5-carboxamide]	3.51
CC(CC1CC1(Cl)Cl)c1ccccc1NC(=O)C(C)(C)C (centres unmarked) [III-4a, N-{2-[2-(2,2-dichlorocyclopropyl)-1-methylethyl]-phenyl}-2,2-dimethylpropionamide]	3.77
